Molecular target: T1, FAM213A (Homo sapiens, UniProt Q9BRX8)
T1 construct: Isotopically labeled H460 cell lines were generated as described above; endogenous in cells; host or cells: H460 (SILAC-labelled)
Assay: ABPP-SILAC BPK-29yne competition in H460 cells: FAM213A
Type: cell-based
Conditions: 20 μM
Experimental: Isotopically labeled H460 cell lines were generated as described above. Light and heavy cells were treated with compounds (20 μM) or DMSO, respectively, for 3 h, followed by labeling with the BPK-29yne (5 μM) for 30 min. Cells were washed once ice-cold PBS and lysed in 1% Triton 100-X dissolved in PBS with protease inhibitors (Sigma) by sonication. Lysate was adjusted to 1.5 mg ml^−1 in 500 μL. Samples were conjugated by CuAAC to Biotin-PEG4-azide (5 μL of 10 mM stocks in DMSO, final concentration=100 μM). CuAAC “click” mix contained TCEP, TBTA ligand and CuSO4 as detailed for isoTOP-ABPP sample preparation. Samples were further processed as detailed in: isoTOP-ABPP streptavidin enrichment and isoTOP-ABPP trypsin TEV digestion with the following exception: after overnight incubation at 37° C. with trypsin, tryptic digests were separated from the beads with Micro Bio-Spin columns (Bio-Rad) by centrifugation (1,000×g, 1 min). Beads were rinsed once with water (200 μL) and combined with tryptic digests. […]
The MS2 spectra data were extracted and searched using RAW Convertor and ProLuCID algorithm as described in isoTOP-ABPP peptide and protein quantification. […] Ratios of heavy/light (DMSO/test compound) peaks were calculated using in-house CIMAGE software. […] The mean R values and standard deviation for multiple biological experiments were calculated from the average ratios from each replicate. […]

T1 sequence (Q9BRX8 whole entry): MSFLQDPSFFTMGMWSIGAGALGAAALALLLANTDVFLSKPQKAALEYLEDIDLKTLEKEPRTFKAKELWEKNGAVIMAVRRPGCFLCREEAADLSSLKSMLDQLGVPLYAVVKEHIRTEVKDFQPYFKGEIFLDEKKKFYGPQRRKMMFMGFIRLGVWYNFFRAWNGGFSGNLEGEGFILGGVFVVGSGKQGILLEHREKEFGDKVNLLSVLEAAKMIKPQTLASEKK

For `O=C(c1ccc(N2CCOCC2)cc1)N1CCCC(N(Cc2ccccc2)C(=O)CCl)CC1` (stereo not shown) [BPK-29, N-benzyl-2-chloro-N-(1-(4-morpholinobenzoyl)azepan-4-yl)acetamide], the “BPK-29-competed BPK-29yne analysis” value was “Yes (Competed defined as showing R value ≥ 2.5 at 20 μM of test compound)”.
